Values quoted from earlier work, collected in patent US20130224268A1, “TOPICAL DELIVERY OF HORMONAL AND NON HORMONAL NANO FORMULATIONS, METHODS OF MAKING AND USING THE SAME” (NEWGEN BIOPHARMA CORP., priority 2012, published 2013).

Tested on: hydroxyproline, a major constituent amino acid in collagen
Conditions: topical estradiol treatment

Compound: C[C@]12CC[C@@H]3c4ccc(O)cc4CC[C@H]3[C@@H]1CC[C@@H]2O [estradiol, (17β)-estra-1,3,5(10)-triene-3,17-diol]
- increase in hydroxyproline: 38%
